# Source: paper PMC10758829 (Heliyon, 2023)
# How the values were obtained:
# [1] = molecular target: dipeptidyl peptidase IV (DPP-IV) (Homo sapiens, UniProt P27487); assay: Gly-Pro-pNA chromogenic assay with recombinant enzyme; assay type: biochemical
# [2] = test system: NCC(=O)N1CCC[C@H]1C(=O)Nc1ccc([N+](=O)[O-])cc1; assay: purified protein; assay type: biochemical, Homo sapiens
# Chain of dipeptidyl peptidase IV (DPP-IV) (P27487 39-766): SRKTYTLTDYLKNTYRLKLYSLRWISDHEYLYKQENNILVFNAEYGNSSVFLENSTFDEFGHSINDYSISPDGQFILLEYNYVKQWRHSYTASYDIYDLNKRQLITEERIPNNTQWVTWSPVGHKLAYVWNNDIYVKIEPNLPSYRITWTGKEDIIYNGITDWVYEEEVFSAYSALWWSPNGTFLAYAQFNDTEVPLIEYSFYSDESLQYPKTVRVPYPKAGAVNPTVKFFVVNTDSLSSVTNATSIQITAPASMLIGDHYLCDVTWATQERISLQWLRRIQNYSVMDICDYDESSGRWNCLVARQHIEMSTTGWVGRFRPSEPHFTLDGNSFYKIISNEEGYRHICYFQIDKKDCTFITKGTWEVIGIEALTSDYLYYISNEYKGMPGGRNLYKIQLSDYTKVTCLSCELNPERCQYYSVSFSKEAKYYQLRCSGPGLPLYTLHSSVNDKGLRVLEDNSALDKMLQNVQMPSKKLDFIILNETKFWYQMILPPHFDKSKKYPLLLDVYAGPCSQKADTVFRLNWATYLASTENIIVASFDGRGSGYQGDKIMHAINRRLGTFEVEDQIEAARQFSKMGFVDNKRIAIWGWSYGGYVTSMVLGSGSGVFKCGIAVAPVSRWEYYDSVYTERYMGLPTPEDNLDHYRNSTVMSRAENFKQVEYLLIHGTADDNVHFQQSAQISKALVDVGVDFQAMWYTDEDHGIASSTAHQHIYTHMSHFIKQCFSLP
Compound,IC50 [1] [µM],Vmax [2] [µM/min]
"C=C(C)[C@@H]1CCC(C)=C[C@H]1c1c(O)cc(CCCCC)cc1O [CBD, cannabidiol]",21.9,
"CCCCCc1cc(O)c(C/C=C(\C)CCC=C(C)C)c(O)c1 [CBG, cannabigerol]",20.2,
"CCCCCc1cc(O)c2c(c1)OC(C)(C)c1ccc(C)cc1-2 [CBN, cannabinol]",12.9,
dipeptidyl peptidase IV (DPP-IV) (Homo sapiens),,1200
